± gives the expanded uncertainty stated by the source.
Settings: 101.33 kPa, Liquid; for viscosity: Capillary tube (Ostwald / Ubbelohde) method; for mass density: Pycnometric method

OCCO [1,2-ethanediol]
viscosity (313.15 K): 9.309 ± 0.11 mPa·s
mass density (313.15 K): 1098.9 ± 1.3 kg/m3
viscosity (323.15 K): 6.818 ± 0.079 mPa·s
mass density (323.15 K): 1091.7 ± 1.3 kg/m3
viscosity (333.15 K): 5.027 ± 0.059 mPa·s
mass density (333.15 K): 1084.2 ± 1.3 kg/m3
viscosity (343.15 K): 3.915 ± 0.046 mPa·s
mass density (343.15 K): 1078.1 ± 1.3 kg/m3

Source: the NIST ThermoML archive (doi:10.1021/je400491p)
